# Assay results from US11046700B2, “Substituted imidazo[1,2-a]pyrazines, pyrazolo[1,5-c]pyrimidines, pyrazolo[1,5-a]pyridines, and purines for the treatment of schistosomiasis” (Merck Patent GmbH, priority 2017, dated 2021).
# How the values were obtained:
# [1] = system: S. mansoni juvenile worms; assay: Mouse infection model, juvenile worms, oral treatment day 25 post infection, worm recovery; format: in vivo, Schistosoma mansoni; details: mice
# Experimental: (§1) Methods for the subcutaneous infection of mice and subsequent worm recovery were as described in Mansour et al (2016) except that infection was with 150 cercariae and the perfusion medium was citrate saline (0.9% sodium chloride, 1.5% tri-sodium citrate). Perfusion was carried out 8 days (adult infections) or 15 days (juvenile infections) after treatment. Perfuseate was collected into 30 mL universal tubes. RBC (Red Blood Cells) were removed by allowing the perfuseate to settle for 10 min, removal of most of the supernatant and washing once as above with 10 mL perfusion medium. A drop of dilute aqueous saponin solution was added to lyse any remaining RBC and the worm suspension poured into a grid-marked small petri dish. The tube was rinsed out into the petri dish and examined for any remaining worms. Worms were counted using a dissecting microscope. The mouse livers removed after perfusion were squashed between two thick glass plates and examined visually and any remaining worms added to those counted as above.
# (§2) For testing efficacy against the juvenile worms, treatment was on day 25 post infection and for testing against the adult worms on day 42 post infection. Drugs were suspended in 7% Tween-80/3% Ethanol/double distilled water and drug dispersal was facilitated by vortexing and using a sonicating water bath (Formulation F1). Alternatively, drugs were suspended in 10% DMSO, 90% double distilled water containing 50 mM Na2HPO4 with 0.5% Tween-80 by first dissolving or suspending the drug in DMSO then adding the DMSO solution/suspension to the aqueous solution (Formulation F2). In a further set of conditions, drugs were first dissolved in DMSO, then diluted with corn oil to give a 5% DMSO+drug solution/suspension (Formulation F3)
# (§3) The drug solution/suspensions were given by oral gavage at the rate of 10 ml/kg. Positive controls (artemether for juvenile worms and praziquantel for adult worms) were used in each experiment.
# S. mansoni adult worms [2] = assay: In vitro assay, S. mansoni adult worms; format: cell-based; details: Schistosoma mansoni; S. mansoni adult worms, in vitro; read-out: (a) Adult
# [3] = system: S. mansoni juvenile worms; assay: In vitro assay, S. mansoni juvenile worms; format: cell-based; details: Schistosoma mansoni; S. mansoni juvenile worms, in vitro; read-out: (b) Juvenile
# [4] = system: S. haemotobium adult worms; assay: In vitro assay, S. haemotobium adult worms; format: cell-based; details: read-out: (c) S. haemotobium
# Experimental: (§4) The routine biological assays using adult or juvenile worms and cytotoxicity assays using MRC-5 cells have been disclosed previously in Mansour, N. R., et al. (2016). “High Throughput Screening Identifies Novel Lead Compounds with Activity against Larval, Juvenile and Schistosoma mansoni PLoS Negl Trap Dis 10(4): e0004659. Cytotoxicity assays using the HepG2 cell line were carried out as described in Molecular Diversity (2015) 19, 251-261.
# (c) S. haemotobium adult worms
# HepG2 cell line = assay: Cytotoxicity against human HepG2 cell lines; format: cell-based
# MRC-5 cells = assay: Cytotoxicity against human MRC-5 cell line; format: cell-based
# Experimental: as §4
# (d) Cytotoxicity against human MRC-5 cell line
# S. mansoni adult worms [5] = assay: Mouse infection model, adult worms, oral treatment day 42 post infection, worm recovery; format: in vivo, Schistosoma mansoni; details: mice
# Experimental: as §1, §2, §3
# [6] = oral 400 mg/kg, Formulation F1, negative control 33.0 ± 7.2
# [7] = oral 400 mg/kg, Formulation F1, negative control 33.2 ± 9.09
# [8] = oral 25 mg/kg, Formulation F1, negative control 33.2 ± 9.09
# [9] = oral 25 mg/kg, Formulation F2, negative control 33.2 ± 9.09
# [10] = oral 50 mg/kg, Formulation F1, negative control 33.0 ± 7.2
# [11] = oral 200 mg/kg, Formulation F1, negative control 38.8 ± 5.4
# [12] = oral 5 mg/kg, Formulation F2, negative control 33.2 ± 9.09
# [13] = oral 6.25 mg/kg, Formulation F3, negative control 32.6 ± 10.6
# [14] = oral 6.25 mg/kg, Formulation F1, negative control 33.8 ± 4.1
# [15] = oral 12.5 mg/kg, Formulation F1, negative control 33.8 ± 4.1
# [16] = oral 50 mg/kg, Formulation F3, negative control 32.8 ± 14
# [17] = oral 50 mg/kg, Formulation F1, negative control 33.2 ± 9.09
# [18] = oral 50 mg/kg, Formulation F1, negative control 33.8 ± 4.1
# [19] = oral 100 mg/kg, Formulation F1, negative control 33.8 ± 4.1
# [20] = oral 400 mg/kg, Formulation F1, negative control 33.8 ± 4.1
# [21] = oral 400 mg/kg, Formulation F1, negative control 38.8 ± 5.4
compound,measurement,setting,value
"CO[C@H]1O[C@@H]2O[C@@]3(C)CC[C@H]4[C@H](C)CC[C@@H]([C@H]1C)[C@@]24OO3 [Artemether, artemether, reference compound]",Mean worm recovery,[1]; [6],8.2 ± 4.1
same,Percent worm reduction,[1]; [6],75%
same,Mean worm recovery,[1]; [7],8.6 ± 4.16
same,Percent worm reduction,[1]; [7],74%
"COc1ccc(-c2c(C(C)C)nc3cnc(-c4cccc(C(F)(F)F)c4)cn23)cc1O [Example 1, 2-methoxy-5-[2-(propan-2-yl)-6-[3-(trifluoromethyl)phenyl]imidazo[1,2-a]pyrazin-3-yl]phenol]",IC50,S. mansoni adult worms [2],58 nM
same,IC50,[3],13 nM
same,IC50,[4],< 195 nM
same,(e) Cytotox HepG2,HepG2 cell line,>11.1 µM
same,(d) Cytotox MRC-5,MRC-5 cells,21.8 µM
"CC(C)c1nc2cnc(-c3ccc(F)c(C(F)(F)F)c3)cn2c1-c1ccc2[nH]ncc2c1F [Example 2, 4-fluoro-5-{6-[4-fluoro-3-(trifluoromethyl)phenyl]-2-(propan-2-yl)imidazo[1,2-a]pyrazin-3-yl}-1H-indazole]",IC50,S. mansoni adult worms [2],47 nM
same,IC50,[3],19 nM
same,Mean worm recovery,[1]; [8],7.2 ± 3.9
same,Percent worm reduction,[1]; [8],78%
same,Mean worm recovery,[1]; [9],4.4 ± 3.91
same,Percent worm reduction,[1]; [9],87%
same,Mean worm recovery,[1]; [10],4.0 ± 4.1
same,Percent worm reduction,[1]; [10],88%
same,(e) Cytotox HepG2,HepG2 cell line,10.4 µM
"Cc1nc2cnc(-c3cccc(C(F)(F)F)c3)cn2c1-c1ccc(O)cc1F [Example 6, 3-fluoro-4-[2-methyl-6-[3-(trifluoromethyl)phenyl]imidazo[1,2-a]pyrazin-3-yl]phenol]",IC50,S. mansoni adult worms [2],290 nM
same,IC50,[3],480 nM
same,(d) Cytotox MRC-5,MRC-5 cells,15.8 µM
"CCc1nc2cnc(-c3cccc(C(F)(F)F)c3)cn2c1-c1ccc(OC)c(O)c1 [Example 7, 2-methoxy-5-[2-ethyl-6-[3-(trifluoromethyl)phenyl]imidazo[1,2-a]pyrazin-3-yl]phenol]",IC50,S. mansoni adult worms [2],90 nM
same,IC50,[3],82 nM
same,(e) Cytotox HepG2,HepG2 cell line,>30 µM
same,(d) Cytotox MRC-5,MRC-5 cells,>50 µM
"CC(C)c1nc2cnc(-c3cccc(C(F)(F)F)c3)cn2c1-c1ccc(O)cc1F [Example 9, 3-fluoro-4-[2-(propan-2-yl)-6-[3-(trifluoromethyl)phenyl]imidazo[1,2-a]pyrazin-3-yl]phenol]",IC50,S. mansoni adult worms [2],76 nM
same,IC50,[3],79 nM
same,(e) Cytotox HepG2,HepG2 cell line,9 µM
same,(d) Cytotox MRC-5,MRC-5 cells,13.7 µM
"Cc1nc2cnc(-c3ccc(F)c(C(F)(F)F)c3)cn2c1-c1ccc(O)cc1F [Example 10, 3-fluoro-4-[2-methyl-6-[4-fluoro-3-(trifluoromethyl)phenyl]imidazo[1,2-a]pyrazin-3-yl]phenol]",IC50,S. mansoni adult worms [2],< 780 nM
same,IC50,[3],530 nM
same,(e) Cytotox HepG2,HepG2 cell line,>11.1 µM
same,(d) Cytotox MRC-5,MRC-5 cells,14.4 µM
"Cc1nc2cnc(-c3ccc(F)c(C(F)(F)F)c3)cn2c1-c1c(F)cc(O)cc1F [Example 16, 3,5-difluoro-4-[2-methyl-6-[4-fluoro-3-(trifluoromethyl)phenyl]imidazo[1,2-a]pyrazin-3-yl]phenol]",IC50,S. mansoni adult worms [2],120 nM
same,IC50,[3],220 nM
same,IC50,[4],40 nM
same,(e) Cytotox HepG2,HepG2 cell line,7.6 µM
"CC(C)c1nc2cnc(-c3ccc(F)c(C(F)(F)F)c3)cn2c1-c1c(F)cc(O)cc1F [Example 17, 3,5-difluoro-4-[2-(propan-2-yl)-6-[4-fluoro-3-(trifluoromethyl)phenyl]imidazo[1,2-a]pyrazin-3-yl]phenol]",IC50,S. mansoni adult worms [2],44 nM
same,IC50,[3],26 nM
same,Mean worm recovery,[1]; [10],20.6 ± 8.5
same,Mean worm recovery,"[1]; oral 200 mg/kg, Formulation F1, negative control 33.0 ± 7.2",5.2 ± 3.1
same,IC50,[4],23 nM
same,(e) Cytotox HepG2,HepG2 cell line,7.1 µM
same,Mean worm recovery,S. mansoni adult worms [5]; [11],0.3 ± 0.8
same,Percent worm reduction,S. mansoni adult worms [5]; [11],99%
"COc1cc(-c2c(C(C)C)nc3cnc(-c4cccc(C(F)(F)F)c4)cn23)cc2cn[nH]c12 [Example 22, 7-methoxy-5-{2-(propan-2-yl)-6-[3-trifluoromethylphenyl]imidazo[1,2-a]pyrazin-3-yl}-1H-indazole]",IC50,S. mansoni adult worms [2],430 nM
same,IC50,[3],530 nM
same,IC50,[4],150 nM
"Fc1c(-c2c(C(F)(F)F)nc3cnc(-c4cccc(C(F)(F)C(F)(F)F)c4)cn23)ccc2[nH]ncc12 [Example 29, 4-fluoro-5-{2-trifluoromethyl-6-[3-(pentafluoroethyl)phenyl]imidazo[1,2-a]pyrazin-3-yl}-1H-indazole]",IC50,S. mansoni adult worms [2],30 nM
same,IC50,[3],28 nM
same,Mean worm recovery,[1]; [12],14.8 ± 6.61
same,Percent worm reduction,[1]; [12],55%
same,Mean worm recovery,[1]; [13],2.0 ± 2.6
same,Percent worm reduction,[1]; [13],94%
same,Mean worm recovery,[1]; [9],4 ± 1.41
same,Percent worm reduction,[1]; [9],88%
same,(e) Cytotox HepG2,HepG2 cell line,8.9 µM
Fc1ccc(-c2cn3c(-c4ccc5[nH]ncc5c4F)c(C4CC4)nc3cn2)cc1C(F)(F)F [Example 32],IC50,S. mansoni adult worms [2],63 nM
same,Mean worm recovery,[1]; [10],29.0 ± 7.9
same,Percent worm reduction,[1]; [10],12%
same,(e) Cytotox HepG2,HepG2 cell line,16.1 µM
"Oc1cc(F)c(-c2c(C3CC3)nc3cnc(-c4ccc(F)c(C(F)(F)F)c4)cn23)c(F)c1 [Example 34, 4-(2-cyclopropyl-6-(4-fluoro-3-(trifluoromethyl)phenyl)imidazo[1,2-a]pyrazin-3-yl)-3,5-difluorophenol]",IC50,S. mansoni adult worms [2],69 nM
same,IC50,[3],88 nM
same,Mean worm recovery,[1]; [10],24.8 ± 7.4
same,Percent worm reduction,[1]; [10],25%
same,(e) Cytotox HepG2,HepG2 cell line,8.9 µM
"CCc1nc2cnc(-c3ccc(F)c(C(F)(F)C(F)(F)F)c3)cn2c1-c1c(F)cc(O)cc1F [Example 45, 4-{2-ethyl-6-[4-fluoro-3-(1,1,2,2,2-pentafluoroethyl)phenyl]imidazo[1,2-a]pyrazin-3-yl}-3,5-difluorophenol]",IC50,[3],21 nM
same,Mean worm recovery,[1]; [8],31.8 ± 5.76
same,Percent worm reduction,[1]; [8],4%
"Fc1ccc(-c2cn3c(-c4ccc5[nH]ncc5c4F)c(C(F)(F)F)nc3cn2)cc1C(F)(F)F [Example 50, 3-(4-Fluoro-1H-indazol-5-yl)-6-(4-fluoro-3-trifluoromethylphenyl)-2-trifluoromethyl-imidazo[1,2-a]pyrazine]",IC50,[3],60 nM
same,Mean worm recovery,[1]; [13],17.6 ± 12.0
same,Percent worm reduction,[1]; [13],46%
same,Mean worm recovery,[1]; [8],0.8 ± 0.84
same,Percent worm reduction,[1]; [8],98%
same,Mean worm recovery,S. mansoni adult worms [5]; [14],7.4 ± 8.1
same,Percent worm reduction,S. mansoni adult worms [5]; [14],78%
same,Mean worm recovery,S. mansoni adult worms [5]; [15],0.2
same,Percent worm reduction,S. mansoni adult worms [5]; [15],99%
"Fc1ccc(-c2cn3c(-c4ccc5[nH]ncc5c4F)c(C(F)(F)F)nc3cn2)cc1C(F)(F)C(F)(F)F [Example 63, 3-(4-Fluoro-1H-indazol-5-yl)-6-(4-fluoro-3-pentafluoroethyl-phenyl)-2-trifluoromethyl-imidazo[1,2-a]pyrazine]",IC50,S. mansoni adult worms [2],11 nM
same,IC50,[3],10 nM
same,Mean worm recovery,[1]; [13],0.6 ± 1.0
same,Percent worm reduction,[1]; [13],98%
same,IC50,[4],< 6 nM
same,(e) Cytotox HepG2,HepG2 cell line,11.7 µM
"CC(C)c1cc(-c2cn3c(-c4ccc5[nH]ncc5c4F)c(C(F)(F)F)nc3cn2)ccc1F [Example 67, 3-(4-Fluoro-1H-indazol-5-yl)-6-(4-fluoro-3-isopropyl-phenyl)-2-trifluoromethyl-imidazo[1,2-a]pyrazine]",IC50,S. mansoni adult worms [2],2 nM
same,IC50,[3],2 nM
same,Mean worm recovery,[1]; [16],0
same,Percent worm reduction,[1]; [16],100%
same,(e) Cytotox HepG2,HepG2 cell line,17.0 µM
"O=C(C1CCCCC1)N1CC(=O)N2CCc3ccccc3C2C1 (stereo not drawn) [Praziquantel, praziquantel]",Mean worm recovery,[1]; [17],26.2 ± 9.44
same,Percent worm reduction,[1]; [17],21%
same,Mean worm recovery,S. mansoni adult worms [5]; [18],29.8 ± 8.4
same,Percent worm reduction,S. mansoni adult worms [5]; [18],13%
same,Mean worm recovery,S. mansoni adult worms [5]; [19],12.2 ± 6.3
same,Percent worm reduction,S. mansoni adult worms [5]; [19],64%
same,Mean worm recovery,S. mansoni adult worms [5]; [20],2.6 ± 1.5
same,Percent worm reduction,S. mansoni adult worms [5]; [20],92%
same,Mean worm recovery,S. mansoni adult worms [5]; [21],2.3 ± 1.7
same,Percent worm reduction,S. mansoni adult worms [5]; [21],94%
